Assays:
[1] = system: PNA+CAR+ cones of C57BL/6J retinal explants; test: Retinal explants culture, cone quantification; format: cell-based, mouse (C57BL/6J); settings: 5-day retinal explants
Experimental: C57BL/6J retina were prepared and placed on polycarbonate filters floating on Dulbecco’s modified Eagle’s medium (DMEM, Thermo Fisher Scientific) with the photoreceptors facing down. For the experiment, retinal explants were cultured in high glucose (25 mM) DMEM alone or supplemented with human insulin (Umuline NPH), human insulin and insulin receptor inhibitor (Hydroxy-2-naphthalenylmethylphosphonic acid (HNMPA), Abcam) or vehicle (DMSO) at 37° C. […] For this reason, HNMPA was used at a concentration 10-fold higher than the IC50 (1 mM). Each culture medium was renewed every 36 hours and after 5 days, the retinal explants were carefully removed. Immunohistochemistry and cones quantification were then performed as described for retina below.
Eyes were enucleated, fixed in 4% paraformaldehyde for 1 hour at room temperature and sectioned at the limbus; the cornea and lens were discarded. […] The retinas were flat mounted and viewed with a fluorescence microscope (DM5500, Leica). […] Each cell population was manually counted in a masked fashion. IBA-1+ cells were quantified on flat mounts on the outer segment side of the detached retina while PNA+ cone arrestin+ cells were counted on confocal microscopy Z-stacks using ImageJ software.

[2] = system: RD-induced cone loss and subretinal IBA-1+ MPs in C57BL/6J mice; test: Mouse model of RD (retinal detachment), retinal flat mount quantification; format: in vivo, mouse (C57BL/6J); settings: for number of PNA+CAR+ cones (cone survival) / numbers of subretinal IBA1+ MPs: day 7 after RD, subretinal injection in diluted sodium hyaluronate (insulin 2 IU/ml, IGF-1 200 ng/ml, metformin 50 mg/ml), compared to PBS controls
Experimental: Wild-type (C57BL/6J) mice were purchased from Janvier Labs at the age of 8 weeks. Mice were housed in the animal facility under specific pathogen-free condition, in a 12 h/12 h light/dark (100-500 lux) cycle with water and normal diet food available ad libitum. All experimental protocols and procedures were approved by the local animal care ethics committee (N°APAFIS#5201-20160427103344).
RD was induced with a previously described method (Nakazawa et al., 2006, 2007a, 2011). Briefly, mice were anesthetized with an intraperitoneal injection of xylazine hydrochloride (10 mg/kg) and ketamine hydrochloride (100 mg/kg) and pupils were dilated with topical phenylephrine (5%) and tropicamide (0.5%). A 30-gauge needle was first used to create two sclerotomies 1.5 mm posterior to the limbus. A glass needle (with a […] manually beveled tip) connected to a Hamilton syringe filled with diluted sodium hyaluronate (Healon GV®, Alcon) was then introduced into the vitreous cavity through one of the sclerotomy. The tip of the needle was finally inserted into the subretinal space through a peripheral retinotomy and 4 µl of diluted sodium hyaluronate containing or not recombinant human TSP-1 (100 µg/ml, Biotechne), human insulin (2 IU/ml, Umuline NPH), recombinant IGF-1 (200 ng/ml, Biotechne) or metformin (50 mg/ml), was gently injected, detaching approximately two-third of the retina from the underlying RPE.
For treatment with rosiglitazone, mice received intraperitoneal injections of 10 mg/kg rosiglitazone or vehicle (5% DMSO) 3 days before and 4 to 7 days after RD induction.
Eyes with subretinal hemorrhage were excluded from analysis. Mice were sacrificed from 1 to 10 days following RD, according to the experiment.
Eyes were enucleated, fixed in 4% paraformaldehyde for 1 hour at room temperature and sectioned at the limbus; the cornea and lens were discarded. The retinas were peeled from the RPE/choroid/sclera and incubated overnight at 4° C. in PBS-1% triton with the following primary antibodies: peanut agglutinin Alexa fluor® 594 (Thermo Fisher Scientific; 1/100), rabbit polyclonal anti-human cone arrestin antibody (LUMIF-hCAR; 1:10000) and goat polyclonal anti-IBA1 (1/100). After few washes, the retinas were incubated for 2 hours at room temperature with appropriate Alexa Fluor® conjugated secondary antibodies (Thermo Fisher Scientific; 1:500) in PBS-1% triton and nuclei were counterstained with Hoechst (1:1000, Sigma Aldrich). The retinas were flat mounted and viewed with a fluorescence microscope (DM5500, Leica). Images centered on the area with the lowest number of PNA+ cone arrestin+ cells were captured with a confocal laser-scanning microscope (FV1000, Olympus) using a 40X lens. Each cell population was manually counted in a masked fashion. IBA-1+ cells were quantified on flat mounts on the outer segment side of the detached retina while PNA+ cone arrestin+ cells were counted on confocal microscopy Z-stacks using ImageJ software.

| Molecule | cone survival (PNA+CAR+ cones) ([1]; high glucose (25 mM) DMEM, human insulin 5 mIU/ml, compared to the control condition) | number of PNA+CAR+ cones (cone survival) [2] | numbers of subretinal IBA1+ MPs [2] | PNA+CAR+ cones after addition of insulin receptor inhibitor ([1]; high glucose DMEM with human insulin, HNMPA 1 mM, versus vehicle (DMSO)) | number of infiltration of subretinal IBA-1+ MPs ([2]; day 7 of RD, daily intraperitoneal 10 mg/kg from 3 days before and throughout RD, versus vehicle (DMSO 5%)) |
| --- | --- | --- | --- | --- | --- |
| insulin: human insulin (Umuline NPH) | significantly increased | very significantly increased | did not alter | – | – |
| CN(C)C(=N)N=C(N)N [metformin, reference compound] | – | increased | significantly decreased | – | – |
| O=P(O)(O)C(O)c1ccc2ccccc2c1 (stereo not drawn) [HNMPA, Hydroxy-2-naphthalenylmethylphosphonic acid, reference compound] | – | – | – | severe loss | – |
| IGF-1: recombinant IGF-1 (Biotechne), insulin-like growth factor | – | no effect | no effect | – | – |
| CN(CCOc1ccc(CC2SC(=O)NC2=O)cc1)c1ccccn1 (stereo not drawn) [rosiglitazone, reference compound] | – | – | – | – | no effect |

From patent US20230172919A1, “AN INSULIN SENSITIZER FOR USE IN THE PREVENTION AND/OR TREATMENT OF THE DAMAGES CAUSED BY RETINAL DETACHMENT” (SORBONNE UNIVERSITE, priority 2020, published 2023)
